# Assay results as given in patent US20180312473A1, “PHENAZINE DERIVATIVES AS ANTIMICROBIAL AGENTS” (priority 2015, published 2018).
# Read-outs that look alike come from different tables or passages of the source. Marks after values point to notes of the source that are not given here.
# Assays:
# [1] = tested on: Enterococcus faecium (ATCC 700221), VRE; test: MIC assay (broth microdilution, CLSI); type: cell-based
# human red blood cells = test: Hemolysis assay with red blood cells; details: human, 1 h, 200 μM, pH 7.2
# Experimental: The hemolysis activities of select compounds of the invention were determined. […] The washing was repeated three times with the buffer. In 96-well plate, test compounds were added to the buffer from DMSO stocks. […] The plate was then incubated for 1 hour at 37° C. After incubation, the plate was centrifuged for 5 minutes at 3,500 rpm. Then 80 μL of the supernatant was transferred to another 96-well plate, and the optical density (OD) was read at 405 nm. DMSO served as the negative control (0% hemolysis), while Triton X served as the positive control (100% hemolysis). The percent of hemolysis was calculated as (OD405 of the compound−OD405 of DMSO)/(OD405 of Triton X−OD405 of the buffer).
# The washing was repeated three times with the buffer. In 96-well plate, test compounds were added to the buffer from DMSO stocks. […] The plate was then incubated for 1 hour at 37° C. After incubation, the plate was centrifuged for 5 minutes at 3,500 rpm. Then 80 μL of the supernatant was transferred to another 96-well plate and the optical density (OD) was read at 405 nm. DMSO served as our negative control (0% hemolysis) while Triton X served as our positive control (100% hemolysis). The percent of hemolysis was calculated as (OD405 of the test compound−OD405 DMSO)/(OD405 Triton X−OD405 buffer) from three independent experiments.
# MRSA BAA-1707 = test: MIC assay (broth microdilution, CLSI); details: Staphylococcus aureus, read-out: MIC, MRSA BAA-1707
# [2] = tested on: MRSA-2 planktonic cells and biofilms; test: Calgary Biofilm Device (CBD) assay, MBC/MBEC; type: cell-based, Staphylococcus aureus; details: for MBC: Staphylococcus aureus, MRSA
# MRSA BAA-44 = test: MIC assay (broth microdilution, CLSI); details: Staphylococcus aureus, read-out: MIC, MRSA BAA-44
# [3] = tested on: MRSA-2 (methicillin-resistant Staphylococcus aureus clinical isolate); test: MIC assay (broth microdilution, CLSI); type: cell-based; details: Staphylococcus aureus, MRSA, read-out: MIC, MRSA-2
# [4] = tested on: Staphylococcus epidermidis (ATCC 35984), MRSE; test: MIC assay (broth microdilution, CLSI); type: cell-based; details: for MIC: Staphylococcus epidermidis
# [5] = tested on: Staphylococcus epidermidis (ATCC 12228); test: MIC assay (broth microdilution, CLSI); type: cell-based; details: Staphylococcus epidermidis, ATCC12228
# [6] = tested on: MRSA-1 (methicillin-resistant Staphylococcus aureus clinical isolate); test: MIC assay (broth microdilution, CLSI); type: cell-based; details: Staphylococcus aureus, MRSA, Table 2A; read-out: MIC, MRSA-1
# HeLa cells = test: in vitro; type: cell-based; details: human, 24 h
# Experimental: (§1) The cytotoxicities of select compounds of the invention against HeLa cells were determined. HeLa cytotoxicity was assessed using the LDH release assay described by CYTOTOX96 (Promega G1780). HeLa cells were grown in Dulbecco's Modified Eagle Medium (DMEM; Gibco) supplemented with 10% Fetal Bovine Serum (FBS) at 37° C. with 5% CO2. […] Triton X-100 (at 2% v/v) was used as the positive control for maximum lactate dehydrogenate (LDH) activity in this assay (e.g., complete cell death), while “medium only” lanes served as negative control lanes (e.g., no cell death). DMSO was used as the vehicle control. […] Finally, Stop Solution (50 μL) was added to the incubating plates, and the absorbance was measured at 490 nm.
# (§2) HeLa cytotoxicity was assessed using the LDH release assay described by CYTOTOX96 (Promega G1780). HeLa cells were grown in Dulbecco's Modified Eagle Medium (DMEM; Gibco) supplemented with 10% Fetal Bovine Serum (FBS) at 37° C. with 5% CO2. […] Triton X-100 (at 2% v/v) was used as the positive control for maximum lactate dehydrogenate (LDH) activity in this assay (e.g., complete cell death), while “medium only” lanes served as negative control lanes (e.g., no cell death). DMSO was used as our vehicle control. […] Finally, Stop Solution (50 μL) was added to the incubating plates and the absorbance was measured at 490 nm. Results are from three independent experiments (FIG. 19)
# in vitro = type: cell-based; details: human
# Experimental: as §1, §2
# S. epidermidis 12228 = test: MIC assay with Tiron or metal(II) cation co-treatment; type: cell-based, Staphylococcus epidermidis; details: Staphylococcus epidermidis
# E. faecium 700221 (VRE) = test: as above; type: cell-based, Enterococcus faecium; details: Enterococcus faecium, VRE
# [7] = tested on: MRSE (S. epidermidis ATCC 35984) planktonic cells and biofilms; test: Calgary Biofilm Device (CBD) assay, MBC/MBEC; type: cell-based, Staphylococcus epidermidis; details: for MBC: Staphylococcus epidermidis
# MRSA-2 = test: MIC assay with Tiron or metal(II) cation co-treatment; type: cell-based, Staphylococcus aureus; details: Staphylococcus aureus
# A. baumannii 19606 = test: MIC assay (broth microdilution, CLSI); type: cell-based, Acinetobacter baumannii; details: Acinetobacter baumannii, 19606; read-out: A. baumannii 19606 MIC
# K. pneumoniae 13883 = test: MIC assay (broth microdilution, CLSI); type: cell-based, Klebsiella pneumoniae; details: Klebsiella pneumoniae, 13883; read-out: K. pneumoniae 13883 MIC
# E. coli UAEC-1 = test: MIC assay (broth microdilution, CLSI); type: cell-based; details: Escherichia coli, UAEC1; read-out: E. coli UAEC-1 MIC
# P. aeruginosa (PAO1) = test: MIC assay (broth microdilution, CLSI); type: cell-based; details: Pseudomonas aeruginosa, PAO1; read-out: PAO1 MIC
# [8] = Enterococcus faecium, Table 2A, read-out: MIC, Enterococcus faecium (ATCC 700221)
# [9] = Table 7, b lowest concentration tested, read-out: MIC, VRE 700221
# [10] = Table 8, a/b 2-/4-fold range in independent experiments, read-out: MRSA-2 MBC
# [11] = Table 7, a midpoint of 2-fold range, b lowest concentration tested
# [12] = Table 2A, read-out: MIC, Staphylococcus epidermidis (ATCC 35984)
# [13] = Table 7, read-out: MIC, MRSE 35984
# [14] = Table 2A, read-out: MIC, Staphylococcus epidermidis (ATCC 12228)
# [15] = Table 7, b lowest concentration tested, read-out: MIC, S. epidermidis 12228
smiles,measurement,setting,value
"Oc1c(Cl)cc(I)c2nc3ccccc3nc12 [Compound 6, 2-Chloro-4-iodo-1-hydroxyphenazine]",MIC,[1]; [8],6.25 µM
same,MIC,[1]; [9],6.25 µM
same,% Hemolysis (200 μM),human red blood cells,5.1%
same,MIC,MRSA BAA-1707,1.56 µM
same,MBC,"[2]; Table 4, read-out: MBC, MRSA-2",15.6 µM
same,MBC,[2]; [10],15.6 µM
same,"MBEC:MBC ratio, MRSA-2",[2]; Table 4,8.0
same,MIC,MRSA BAA-44,1.56 µM
same,MIC,[3]; Table 2A,1.56 µM
same,MIC,[3]; [11],1.56 µM
same,MIC,[4]; [12],1.56 µM
same,MIC,[4]; [13],1.56 µM
same,MIC,[5]; [14],1.56 µM
same,MIC,[5]; [15],1.56 µM
same,MIC,[6],1.56 µM
same,melting point,,183 to 185 °C
same,IC50,HeLa cells,> 100 µM
same,IC50 at 24 h,in vitro,> 100 µM
"Oc1c(Cl)cc(Br)c2nc3cc(Br)c(Br)cc3nc12 [Compound 15, 4,7,8-Tribromo-2-chloro-1-hydroxyphenazine]",MIC,[1]; [8],0.39 µM
same,MIC,[1]; [9],0.39 µM
same,% Hemolysis (200 μM),human red blood cells,2.1%
same,% Hemolysis at 200 μM,human red blood cells,2.1%
same,MIC,"S. epidermidis 12228; S. epidermidis 12228, 200 μM CuSO4, read-out: MIC with Cu^2+",50 µM
same,MIC,"S. epidermidis 12228; S. epidermidis 12228, 1 mM Tiron, read-out: MIC with Tiron",0.1 µM
same,MIC,"S. epidermidis 12228; S. epidermidis 12228, no additive, read-out: MIC",0.1 µM
same,MBC,"[2]; Table 4, read-out: MBC, MRSA-2",25 µM
same,MBC,[2]; [10],25 µM
same,MIC,"E. faecium 700221 (VRE); E. faecium 700221, 200 μM CuSO4, read-out: MIC with Cu^2+",12.5 µM
same,MIC,"E. faecium 700221 (VRE); E. faecium 700221, 1 mM Tiron, read-out: MIC with Tiron",0.78 µM
same,MIC,"E. faecium 700221 (VRE); E. faecium 700221, no additive, read-out: MIC",0.78 µM
same,MIC,MRSA BAA-44,25 µM
same,MIC,[3]; Table 2A,12.5 µM
same,MIC,[3]; [11],12.5 µM
same,MIC,[4]; [12],0.2 to 0.39 µM
same,MIC,[4]; [13],0.3 to 0.59 µM
same,"MIC, MRSE 35984",[4]; Table 7,0.30^a μM
same,MIC,[5]; [14],0.05 to 0.1 µM
same,MIC,[5]; [15],0.08 µM
same,MIC,[6],6.25 µM
same,MBC,"[7]; Table 4, read-out: MBC, Staphylococcus epidermidis (ATCC 35984)",1.56 µM
same,MBC,"[7]; Table 8, read-out: MRSE 35984 MBC",1.56 µM
same,"MBEC, Staphylococcus epidermidis (ATCC 35984)",[7]; Table 4,3.13 µM
same,melting point,,242 to 244 °C
same,MIC,"MRSA-2; MRSA-2, 200 μM copper(II), read-out: MIC with Cu^2+",> 100 µM
same,MIC,"MRSA-2; MRSA-2, 1 mM Tiron, read-out: MIC with Tiron",0.2 µM
same,MIC,"MRSA-2; MRSA-2, no additive (Table 9), read-out: MIC",3.13 µM
same,IC50,HeLa cells,> 100 µM
same,IC50 at 24 h,in vitro,> 100 µM
"COc1cccc2nc3cc(Cl)c(Cl)cc3nc12 [Compound 20, 7,8-Dichloro-1-methoxyphenazine]",MIC,[1]; [8],> 100 µM
same,MIC,[1]; [9],> 100 µM
same,% Hemolysis (200 μM),human red blood cells,1.5%
same,MIC,A. baumannii 19606,> 100 µM
same,MIC,[3]; Table 2A,> 100 µM
same,MIC,[3]; [11],> 100 µM
same,MIC,K. pneumoniae 13883,> 100 µM
same,MIC,[4]; [12],> 100 µM
same,MIC,[4]; [13],> 100 µM
same,MIC,E. coli UAEC-1,> 100 µM
same,MIC,[5]; [14],> 100 µM
same,MIC,[5]; [15],> 100 µM
same,MIC,P. aeruginosa (PAO1),> 100 µM
Oc1cccc2nc3cc(Cl)c(Cl)cc3nc12 [Compound 21],MIC,[1]; [8],> 100 µM
same,MIC,[1]; [9],> 100 µM
same,% Hemolysis (200 μM),human red blood cells,≤1%
same,MIC,A. baumannii 19606,> 100 µM
same,MIC,[3]; Table 2A,> 100 µM
same,MIC,[3]; [11],> 100 µM
same,MIC,K. pneumoniae 13883,> 100 µM
same,MIC,[4]; [12],> 100 µM
same,MIC,[4]; [13],> 100 µM
same,MIC,E. coli UAEC-1,> 100 µM
same,MIC,[5]; [14],> 100 µM
same,MIC,[5]; [15],> 100 µM
same,MIC,P. aeruginosa (PAO1),> 100 µM
Oc1c(Br)cc(Br)c2nccnc12 [Compound 25],MIC,[1]; [8],100 µM
same,MIC,[1]; [9],100 µM
same,% Hemolysis (200 μM),human red blood cells,1.8%
same,% Hemolysis at 200 μM,human red blood cells,1.8%
same,MIC,A. baumannii 19606,6.25 µM
same,MIC,MRSA BAA-1707,6.25 µM
same,MBC,"[2]; Table 4, read-out: MBC, MRSA-2",1500 µM
same,MBC,[2]; [10],1500 µM
same,MIC,MRSA BAA-44,12.5 µM
same,MIC,[3]; Table 2A,25 µM
same,MIC,[3]; [11],25 µM
same,MIC,[4]; [12],12.5 to 25 µM
same,MIC,[4]; [13],18.8 µM
same,MIC,E. coli UAEC-1,12.5 µM
same,MIC,[5]; [14],12.5 to 25 µM
same,MIC,[5]; [15],18.8 µM
same,MIC,P. aeruginosa (PAO1),> 100 µM
same,IC50 at 24 h,in vitro,> 100 µM
Cc1nc2c(Br)cc(Br)c(O)c2nc1C [Compound 27],MIC,[1]; [8],25 µM
same,MIC,[1]; [9],25 µM
same,% Hemolysis (200 μM),human red blood cells,≤1%
same,% Hemolysis at 200 μM,human red blood cells,≤1%
same,MIC,A. baumannii 19606,> 100 µM
same,MBC,"[2]; Table 4, read-out: MBC, MRSA-2",125 µM
same,MBC,[2]; [10],125 µM
same,MIC,MRSA BAA-44,6.25 µM
same,MIC,K. pneumoniae 13883,> 100 µM
same,MIC,E. coli UAEC-1,> 100 µM
same,MIC,[5]; [14],12.5 µM
same,MIC,[5]; [15],12.5 µM
same,MIC,P. aeruginosa (PAO1),> 100 µM
